Among the data in ChEMBL document CHEMBL1148569, “Aza-analogues of the marine pyrroloquinoline alkaloids wakayin and tsitsikammamines: synthesis and topoisomerase inhibition” (Bioorg Med Chem Lett, 2006) are Activity values, retold here.

Calls of active or inactive are those of the source. The rule behind the calls is not given here.

Assay [1] deals with T1, DNA topoisomerase 1 (Homo sapiens) (UniProt P11387).
T1 sequence (whole entry): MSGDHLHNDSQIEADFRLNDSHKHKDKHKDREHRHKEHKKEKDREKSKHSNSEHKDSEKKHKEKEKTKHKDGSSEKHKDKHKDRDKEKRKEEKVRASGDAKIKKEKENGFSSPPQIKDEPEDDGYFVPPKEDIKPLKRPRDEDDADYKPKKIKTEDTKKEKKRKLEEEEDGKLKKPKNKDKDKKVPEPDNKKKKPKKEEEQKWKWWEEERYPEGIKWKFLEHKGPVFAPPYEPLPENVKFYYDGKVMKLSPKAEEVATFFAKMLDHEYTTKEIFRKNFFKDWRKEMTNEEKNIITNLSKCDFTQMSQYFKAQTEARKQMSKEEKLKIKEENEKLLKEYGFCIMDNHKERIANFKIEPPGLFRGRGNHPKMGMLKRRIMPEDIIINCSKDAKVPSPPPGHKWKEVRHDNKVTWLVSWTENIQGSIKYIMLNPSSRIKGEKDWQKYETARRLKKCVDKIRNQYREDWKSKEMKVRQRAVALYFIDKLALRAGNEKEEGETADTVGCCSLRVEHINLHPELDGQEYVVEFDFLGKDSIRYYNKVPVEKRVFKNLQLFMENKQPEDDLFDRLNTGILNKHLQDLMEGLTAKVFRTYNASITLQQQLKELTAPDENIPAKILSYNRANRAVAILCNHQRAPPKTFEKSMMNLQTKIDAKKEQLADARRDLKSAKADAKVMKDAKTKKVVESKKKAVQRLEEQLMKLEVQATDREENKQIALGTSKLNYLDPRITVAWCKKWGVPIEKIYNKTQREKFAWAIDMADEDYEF
As to the kind of experiment: Inhibition of Topoisomerase 1 mediated DNA cleavage activity in a cell free assay at 100 uM.

For assay [2], the target named is DNA topoisomerase II (Homo sapiens) (UniProt P11388+Q02880). As to the kind of experiment: Inhibition of Topoisomerase 2 mediated DNA cleavage activity in a cell free assay at 100 uM. It is filed as protein assay.

In the case of `O=C1c2[nH]ccc2C2=NCCc3n[nH]c1c32`, the outcome in assay [1] was Active. The result in assay [2] was inactive.

On to `O=C1c2cc[nH]c2C2=NCCc3n[nH]c1c32`, for which the result in assay [1] and in assay [2] was inactive.
